Experimental data from US20240116857A1 (St. Louis University, priority 2022, published 2024).
In brackets after ≈: the same amount, converted by molar mass. Read-outs that look alike come from different tables or passages of the source.

Test system: E. coli BW25113
Assay: MIC, 2-fold broth dilution, E. coli BW25113
Type: cell-based, Escherichia coli
Conditions: Escherichia coli, E. coli BW25113
[1] = asterisk in column >50, read-out: MIC, μM >50
[2] = asterisk in column 10-50, read-out: MIC, μM 10-50
[3] = asterisk in column 1-10, read-out: MIC, μM 1-10

SMILES	MIC [1] [µM]	other results
CN(C)c1ccc(NC(=O)c2ccc(-c3ccc(C(=O)Nc4ccc(N(C)C)c(Br)c4)cc3)cc2)cc1Br [Example 80, N^4,N^4′-bis(3-bromo-4-(dimethylamino)phenyl)-[1,1′-biphenyl]-4,4′-dicarboxamide]	> 50	–
O=C(Nc1ccc(-c2ccc(NC(=O)c3ccncc3)cc2)cc1)c1ccncc1 [Example 81, N,N′-([1,1′-biphenyl]-4,4′-diyl)diisonicotinamide]	> 50	–
C[N+](C)(C)c1ccc(NC(=O)c2ccc(-c3ccc(C(=O)Nc4ccc([N+](C)(C)C)c(C(F)(F)F)c4)cc3)cc2)cc1C(F)(F)F [Example 82, 4,4′-(([1,1′-biphenyl]-4,4′-dicarbonyl)bis(azanediyl))bis(N,N,N-trimethyl-2-(trifluoromethyl)benzenaminium)]	> 50	–
O=C(Nc1ccc(Oc2ccncc2)cc1)c1ccc(C(=O)Nc2ccc(Oc3ccncc3)cc2)c([N+](=O)[O-])c1 [Example 83, 2-nitro-N^1,N^4-bis(4-(pyridin-4-yloxy)phenyl)terephthalamide]	> 50	–
C[n+]1ccc(Oc2ccc(NC(=O)c3ccc(C(=O)Nc4ccc(Oc5cc[n+](C)cc5)cc4)c([N+](=O)[O-])c3)cc2)cc1 [Example 84, 4,4′-((((2-nitroterephthaloyl)bis(azanediyl))bis(4,1-phenylene))bis(oxy))bis(1-methylpyridin-1-ium)]	–	MIC [2]: 10 to 50 µM
C[n+]1ccc(C(=O)Nc2ccc(-c3ccc(NC(=O)c4cc[n+](C)cc4)cc3)cc2)cc1 [Example 85, 4,4′-(([1,1′-biphenyl]-4,4′-diylbis(azanediyl))bis(carbonyl))bis(1-methylpyridin-1-ium)]	> 50	–
C[N+](C)(C)c1ccc(NC(=O)c2ccc(-c3ccc(C(=O)Nc4ccc([N+](C)(C)C)c(Br)c4)cc3)cc2)cc1Br [Example 86, 4,4′-(([1,1′-biphenyl]-4,4′-dicarbonyl)bis(azanediyl))bis(2-bromo-N,N,N-trimethylbenzenaminium)]	–	MIC [2]: 10 to 50 µM
C[n+]1ccc(Nc2ccc(NC(=O)c3ccc(C(=O)Nc4ccc(Nc5cc[n+](C)cc5)cc4)c(Br)c3)cc2)cc1 [Example 87, 4,4′-((((2-bromoterephthaloyl)bis(azanediyl))bis(4,1-phenylene))bis(azanediyl))bis(1-methylpyridin-1-ium)]	–	MIC [3]: 1 to 10 µM
C[n+]1ccc(Oc2ccc(NC(=O)c3ccc(C(=O)Nc4ccc(Oc5cc[n+](C)cc5)cc4)c(N)c3)cc2)cc1 [Example 89, 4,4′-((((2-aminoterephthaloyl)bis(azanediyl))bis(4,1-phenylene))bis(oxy))bis(1-methylpyridin-1-ium)]	–	MIC [2]: 10 to 50 µM
Cc1cc(C(=O)Nc2ccc(N(C)C)c(F)c2)ccc1-c1ccc(C(=O)Nc2ccc(N(C)C)c(F)c2)cc1 [Example 90, N^4,N^4′-bis(4-(dimethylamino)-3-fluorophenyl)-2-methyl-[1,1′-biphenyl]-4,4′-dicarboxamide]	> 50	–
Cc1cc(C(=O)Nc2ccc([N+](C)(C)C)c(F)c2)ccc1-c1ccc(C(=O)Nc2ccc([N+](C)(C)C)c(F)c2)cc1 [Example 91, 4,4′-((2-methyl-[1,1′-biphenyl]-4,4′-dicarbonyl)bis(azanediyl))bis(2-fluoro-N,N,N-trimethylbenzenaminium)]	> 50	–
O=C(NCc1ccncc1)c1ccc(-c2ccc(C(=O)NCc3ccncc3)cc2)cc1 [Example 92, N^4,N^4′-bis(pyridin-4-ylmethyl)-[1,1′-biphenyl]-4,4′-dicarboxamide]	> 50	–
C#CCN(C)c1ccc(NC(=O)c2ccc(-c3ccc(C(=O)Nc4ccc(N(C)C)c(F)c4)cc3)cc2)cc1F [Example 93, N^4-(4-(dimethylamino)-3-fluorophenyl)-N^4′-(3-fluoro-4-(methyl(prop-2-yn-1-yl)amino)phenyl)-[1,1′-biphenyl]-4,4′-dicarboxamide]	> 50	–
C#CC[N+](C)(C)c1ccc(NC(=O)c2ccc(-c3ccc(C(=O)Nc4ccc([N+](C)(C)C)c(F)c4)cc3)cc2)cc1F [Example 94, 4-(4′-((4-(dimethyl(prop-2-yn-1-yl)ammonio)-3-fluorophenyl)carbamoyl)-[1,1′-biphenyl]-4-carboxamido)-2-fluoro-N,N,N-trimethylbenzenaminium]	–	MIC [3]: 1 to 10 µM
C#CCCCCOc1cc(NC(=O)c2ccc(-c3ccc(C(=O)Nc4ccc(N(C)C)c(F)c4)cc3)cc2)ccc1N(C)C [Example 95, N^4-(4-(dimethylamino)-3-(hex-5-yn-1-yloxy)phenyl)-N^4′-(4-(dimethylamino)-3-fluorophenyl)-[1,1′-biphenyl]-4,4′-dicarboxamide]	> 50	–
C#CCCCCOc1cc(NC(=O)c2ccc(-c3ccc(C(=O)Nc4ccc([N+](C)(C)C)c(F)c4)cc3)cc2)ccc1[N+](C)(C)C [Example 96, 2-fluoro-4-(4′-((3-(hex-5-yn-1-yloxy)-4-(trimethylammonio)phenyl)carbamoyl)-[1,1′-biphenyl]-4-carboxamido)-N,N,N-trimethylbenzenaminium]	–	MIC [3]: 1 to 10 µM
COc1cc(NC(=O)c2ccc(-c3ccc(C(=O)Nc4ccc(N(C)C)c(F)c4)cc3)cc2)ccc1N(C)C [Example 97, N^4-(4-(dimethylamino)-3-fluorophenyl)-N^4′-(4-(dimethylamino)-3-methoxyphenyl)-[1,1′-biphenyl]-4,4′-dicarboxamide]	> 50	–
COc1cc(NC(=O)c2ccc(-c3ccc(C(=O)Nc4ccc([N+](C)(C)C)c(F)c4)cc3)cc2)ccc1[N+](C)(C)C [Example 98, 2-fluoro-4-(4′-((3-methoxy-4-(trimethylammonio)phenyl)carbamoyl)-[1,1′-biphenyl]-4-carboxamido)-N,N,N-trimethylbenzenaminium]	–	MIC [3]: 1 to 10 µM
C#CCCOc1cc(NC(=O)c2ccc(-c3ccc(C(=O)Nc4ccc(N(C)C)c(F)c4)cc3)cc2)ccc1N(C)C [Example 99, N^4-(3-(but-3-yn-1-yloxy)-4-(dimethylamino)phenyl)-N^4′-(4-(dimethylamino)-3-fluorophenyl)-[1,1′-biphenyl]-4,4′-dicarboxamide]	> 50	–
C[n+]1ccc(CNC(=O)c2ccc(-c3ccc(C(=O)NCc4cc[n+](C)cc4)cc3)cc2)cc1 [Example 100, 4,4′-((([1,1′-biphenyl]-4,4′-dicarbonyl)bis(azanediyl))bis(methylene))bis(1-methylpyridin-1-ium)]	> 50	–
CN(C)c1ccc(CNC(=O)c2ccc(-c3ccc(C(=O)NCc4ccc(N(C)C)cc4)cc3)cc2)cc1 [Example 101, N^4,N^4′-bis(4-(dimethylamino)benzyl)-[1,1′-biphenyl]-4,4′-dicarboxamide]	> 50	–

SMILES	MIC [1] [µM]	other results
C[N+](C)(C)c1ccc(CNC(=O)c2ccc(-c3ccc(C(=O)NCc4ccc([N+](C)(C)C)cc4)cc3)cc2)cc1 [Example 102, 4,4′-((([1,1′-biphenyl]-4,4′-dicarbonyl)bis(azanediyl))bis(methylene))bis(N,N,N-trimethylbenzenaminium)]	> 50	–
C#CCCOc1cc(NC(=O)c2ccc(-c3ccc(C(=O)Nc4ccc([N+](C)(C)C)c(F)c4)cc3)cc2)ccc1[N+](C)(C)C [Example 103, 2-(but-3-yn-1-yloxy)-4-(4′-((3-fluoro-4-(trimethylammonio)phenyl)carbamoyl)-[1,1′-biphenyl]-4-carboxamido)-N,N,N-trimethylbenzenaminium]	–	MIC [3]: 1 to 10 µM
C#CCN(C)c1ccc(NC(=O)c2ccc(-c3ccc(C(=O)Nc4ccc([N+](C)(C)C)c(F)c4)cc3)cc2)cc1F [Example 104]	> 50	–
COC(=O)Cn1cc(CCC[N+](C)(C)c2ccc(NC(=O)c3ccc(-c4ccc(C(=O)Nc5ccc([N+](C)(C)C)c(F)c5)cc4)cc3)cc2F)nn1 [Example 106]	> 50	–
COC(=O)Cn1cc(CCOc2cc(NC(=O)c3ccc(-c4ccc(C(=O)Nc5ccc([N+](C)(C)C)c(F)c5)cc4)cc3)ccc2[N+](C)(C)C)nn1 [Example 107]	> 50	–
COC(=O)Cn1cc(C[N+](C)(C)c2ccc(NC(=O)c3ccc(-c4ccc(C(=O)Nc5ccc([N+](C)(C)C)c(F)c5)cc4)cc3)cc2F)nn1 [Example 108]	> 50	–
CN(C)c1ccc(NC(=O)c2ccc(-c3ccc(C(=O)Nc4ccc(N5CCCCC5)cc4)cc3)cc2)cc1F [Example 111]	> 50	–
CN(C)c1ccc(NC(=O)c2ccc(-c3ccc(C(=O)Nc4ccc(N(C)C)c(F)c4)cc3)cc2)cc1 [Example 112]	> 50	–
CN(C)c1ccc(NC(=O)c2ccc(-c3ccc(C(=O)Nc4ccc(N(C)C)c(F)c4)cc3C(F)(F)F)cc2)cc1F [Example 114]	> 50	–
CN(C)c1ccc(NC(=O)c2ccc(-c3ccc(C(=O)Nc4ccc(N(C)C)c(Cl)c4)cc3)cc2)cc1F [Example 115]	> 50	–
C#CCCCCCCCCOc1cc(NC(=O)c2ccc(-c3ccc(C(=O)Nc4ccc([N+](C)(C)C)c(F)c4)cc3)cc2)ccc1[N+](C)(C)C [Example 116]	–	MIC [3]: 1 to 10 µM
C#CCCCCCCCCOc1cc(NC(=O)c2ccc(-c3ccc(C(=O)Nc4ccc(N(C)C)c(F)c4)cc3)cc2)ccc1N(C)C [Example 117]	> 50	–
C#CCCC[N+](C)(C)c1ccc(NC(=O)c2ccc(-c3ccc(C(=O)Nc4ccc([N+](C)(C)C)c(F)c4)cc3)cc2)cc1F [Example 118]	–	MIC [2]: 10 to 50 µM
C#CCCCC[N+](C)(C)c1ccc(NC(=O)c2ccc(-c3ccc(C(=O)Nc4ccc([N+](C)(C)C)c(F)c4)cc3)cc2)cc1F [Example 121]	> 50	–
C#CCCCOc1cc(NC(=O)c2ccc(-c3ccc(C(=O)Nc4ccc([N+](C)(C)C)c(F)c4)cc3)cc2)ccc1[N+](C)(C)C [Example 122]	> 50	–
C#CCCCOc1cc(NC(=O)c2ccc(-c3ccc(C(=O)Nc4ccc(N(C)C)c(F)c4)cc3)cc2)ccc1N(C)C [Example 123]	> 50	–
C#CCCCN(C)c1ccc(NC(=O)c2ccc(-c3ccc(C(=O)Nc4ccc(N(C)C)c(F)c4)cc3)cc2)cc1F [Example 124]	> 50	–
CN(C)c1ccc(NC(=O)c2ccc(-c3ccc(C(=O)Nc4ccc([N+](C)(C)C)c(F)c4)cc3)cc2)cc1F [Example 125]	> 50	–
C#CCCCCN(C)c1ccc(NC(=O)c2ccc(-c3ccc(C(=O)Nc4ccc(N(C)C)c(F)c4)cc3)cc2)cc1F [Example 126]	> 50	–
CN(C)c1ccc(NC(=O)c2ccc(-c3ccc(C(=O)Nc4ccc(N5CCCCC5)cc4)cc3)cc2)cc1 [Example 127]	–	MIC [3]: 1 to 10 µM (≈ 0.519 to 5.19 µg/mL)
